The structures appear in SMILES notation.

In the experiment the target is T1, FXR ligand binding domain (Homo sapiens, UniProt Q96RI1).
T1 sequence (Q96RI1 1-486): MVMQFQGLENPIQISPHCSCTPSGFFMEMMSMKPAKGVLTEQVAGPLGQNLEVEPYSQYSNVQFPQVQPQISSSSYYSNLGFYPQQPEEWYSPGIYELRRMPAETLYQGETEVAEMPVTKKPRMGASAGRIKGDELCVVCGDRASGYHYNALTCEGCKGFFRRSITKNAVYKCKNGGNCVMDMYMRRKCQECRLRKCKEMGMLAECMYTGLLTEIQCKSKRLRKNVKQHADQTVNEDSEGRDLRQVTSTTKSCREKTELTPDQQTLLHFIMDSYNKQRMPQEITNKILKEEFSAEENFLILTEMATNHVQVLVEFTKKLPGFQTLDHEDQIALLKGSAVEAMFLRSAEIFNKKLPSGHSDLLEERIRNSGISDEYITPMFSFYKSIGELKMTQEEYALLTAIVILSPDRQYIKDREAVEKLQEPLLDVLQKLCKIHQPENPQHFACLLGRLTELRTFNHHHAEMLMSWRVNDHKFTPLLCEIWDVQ
Briefly: Radioligand binding assay (radioligand displacement, scintillation proximity). Particulars: GST-FXR LBD fusion protein on SPA beads, radioligand 2,N-dicyclohexyl-2-[2-(2,4 dimethoxy-phenyl)-benzoimidazol-1-yl]-acetamide, RT 30 minutes. How it is done:
The following tests were carried out in order to determine the activity of the compounds of formula I. Background information on the binding assay can be found in: Nichols J S et al. “Development of a scintillation proximity assay for peroxisome proliferator-activated receptor gamma ligand binding domain”, (1998) Anal. Biochem. 257: 112-119.
Bacterial and mammalian expression vectors were constructed to produce glutathione-s-transferase (GST) and Gal4 DNA binding domain (GAL) proteins fused to the ligand binding domain (LBD) of human FXR (aa 193-473). To accomplish this, the portions of the sequences encoding the FXR LBD were amplified by polymerase chain reaction (PCR) from a full-length clone by PCR and then subcloned into the plasmid vectors. The final clone was verified by DNA sequence analysis.
The induction, expression, and subsequent purification of GST-LBD fusion protein was performed in E. coli strain BL21(pLysS) cells by standard methods (Current Protocols in Molecular Biology, Wiley Press, ed. Ausubel et al).
Radioligand Binding Assay
Binding of test substances to the FXR ligand binding domain was assessed in a radioligand displacement assay. The assay was performed in a buffer consisting of 50 mM Hepes, pH 7.4, 10 mM NaCl, 5 mM MgCl2. For each reaction well in a 96-well plate, 40 nM of GST-FXR LBD fusion protein was bound to 10 μg glutathione ytrium silicate SPA beads (Pharmacia Amersham) in a final volume of 50 μl by shaking. A radioligand (eg. 40 nM) of 2,N-dicyclohexyl-2-[2-(2,4 dimethoxy-phenyl)-benzoimidazol-1-yl]-acetamide) was added, and the reaction incubated at RT for 30 minutes in the presence of test compounds followed by scintillation proximity counting. All binding assays were performed in 96-well plates and the amount of bound ligand was measured on a Packard TopCount using OptiPlates (Packard). Dose response curves were performed within a range of concentration from 6×10^−9 M to 2.5×10^−5 M.
Background: Displacement assays read how much labelled ligand stays bound in the presence of the test substance.

`O=C(Nc1ccc(OC2(C(=O)O)CC2)cc1F)[C@H](c1c2c(nn1-c1ccc(Cl)cc1)CCCC2)C1CCCCC1` [Example 23, (−)-1-(4-{2-[2-(4-Chloro-phenyl)-4,5,6,7-tetrahydro-2H-indazol-3-yl]-2-cyclohexyl-acetylamino}-3-fluoro-phenoxy)-cyclopropanecarboxylic acid] yielded an IC50 of 21 nM.

One may read the IC50 as the concentration that inhibits the measured activity by half. A higher IC50 goes with lower potency.

Values taken from patent US8008505B2, “Indazole or 4,5,6,7-tetrahydro-indazole derivatives” (Hoffmann-La Roche Inc., priority 2008, dated 2011).
